Among the data in US9550763B2, “Heterocyclic ring and carbocyclic derivative” (Shionogi & Co., Ltd., priority 2012, dated 2017) are IC50 values, retold here.

Sequence of human P2X3 receptor (P56373 whole entry): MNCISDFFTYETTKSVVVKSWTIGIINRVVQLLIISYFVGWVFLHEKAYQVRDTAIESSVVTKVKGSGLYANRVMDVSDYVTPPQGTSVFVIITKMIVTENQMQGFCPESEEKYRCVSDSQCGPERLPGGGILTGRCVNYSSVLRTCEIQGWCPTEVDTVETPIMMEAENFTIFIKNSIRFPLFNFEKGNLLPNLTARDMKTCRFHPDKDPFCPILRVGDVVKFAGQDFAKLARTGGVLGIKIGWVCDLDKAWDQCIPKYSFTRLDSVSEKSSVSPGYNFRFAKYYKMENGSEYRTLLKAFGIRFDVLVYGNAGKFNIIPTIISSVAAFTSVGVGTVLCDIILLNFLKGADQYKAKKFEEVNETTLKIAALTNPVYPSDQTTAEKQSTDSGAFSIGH

The test concerns the target human P2X3 receptor (Homo sapiens (Human), UniProt P56373). Put plainly: Evaluation of human P2X3 receptor inhibitory activity (Test Example 1-1, FDSS 3000, 96-well, 50 nM ATP). It counts as cell-based. The following applies: human P2X3 receptor in C6BU-1 cells; Test Example 1-1 (compounds I-001 to I-300). As to the method:
Stably expressing cell line (C6BU-1 cell transfected with human P2X3 receptor gene (GenBank accession number Y07683) was used. The cells were seeded in a 96-well microtiter plate at a concentration of 8000 cells/well and cultured in the medium (7.0% fetal bovine serum, 7.0% horse serum, 1% antibiotic and antifungal in DMEM) for one day at 37° C. under 5% carbon dioxide atmosphere. The medium was replaced with 4 μM Fluo-3-AM solution (20 mM HEPES, 137 mM NaCl, 5.27 mM KCl, 0.9 mM MgCl2, 1.26 mM CaCl2, 5.6 mM D-glucose, 2.5 mM probenecid, 1% BSA, and 0.08% Pluronic F-127, pH 7.5) and incubated at 37° C. under 5% dioxide carbon atmosphere for one hour. The plate was washed with washing buffer (20 mM HEPES, 137 mM NaCl, 5.27 mM KCl, 0.9 mM MgCl2, 1.26 mM CaCl2, 5.6 mM D-glucose, 2.5 mM probenecid, pH7.5), and each well was added with 40 μL of this buffer. The plate was placed in High-Throughput Screening System. FDSS 3000 (Hamamatsu Photonics K.K.). Measurement of fluorescence intensity by FDSS 3000 was started, and 40 μL of DMSO solutions containing different concentrations of the test compound as prepared by dilution with dilution buffer (20 mM HEPES, 137 mM NaCl, 5.27 mM KCl, 0.9 mM MgCl2, 1.26 mM CaCl2, 5.68 mM D-glucose, 2.5 mM probenecid, 0.1% Pluronic F-127, pH7.5) were dispensed to each well through the built-in automatic dispenser. Five minutes after, 50 nM ATP solution (50 μL) prepared by dilution with the dilution buffer was dispensed through the built-in automatic dispenser, and the measurement of fluorescence intensity was continued for 4 min. For each well, the specific maximum fluorescence intensity was calculated as the ratio of the maximum fluorescence intensity after addition of the ATP solution to the fluorescence intensity at the starting of the measurement. The 50% inhibitory concentration (IC50) was calculated under the assumption that the specific maximum fluorescence intensity without test compound is 0% inhibition and that the specific maximum fluorescence intensity when the dilution buffer was added in place of ATP solution is 100% inhibition, to evaluate the inhibitory activity of the test compound. FDSS software (Hamamatsu Photonics K.K.) was used for calculation of the specific maximum fluorescence intensity. IC50 was calculated using Microsoft Excel (Microsoft Corporation) and XLfit (idbs Ltd.)
The data of the compounds I-001 to I-300 are the results by the method mentioned in Test Example 1-1, and the data of the compounds I-301 to I-483 are the results by the method mentioned in Test Example 1-2.
In general, IC50 refers to the concentration needed to halve the response being measured. High values mean lower potency, low ones higher potency. In the case of `CCC(=O)Nc1c[nH]/c(=N\c2ccc(Oc3cccc(F)n3)cc2)n(Cc2ccc(Cl)cc2)c1=O` [Compound I-090], the IC50 stood at 11 nM.
`NC(=O)c1c[nH]/c(=N\c2ccc(Oc3cccc(F)n3)cc2)n(Cc2ccc(Cl)cc2)c1=O` [Compound I-034] came in with an IC50 of 14 nM.
For `CCC(=O)Nc1c[nH]/c(=N\c2ccc(Oc3cnc(C#N)cn3)cc2)n(Cc2ccc(Cl)cc2)c1=O` [Compound I-138], 4 nM corresponded to half-maximal inhibition (IC50).
The result for `Cc1cnc(-c2c[nH]/c(=N\c3ccc(Oc4ccon4)cc3)n(Cc3ccc(Cl)cc3)c2=O)o1` [Compound I-294] reads 84 nM; that for `CCC(=O)Nc1c[nH]/c(=N\c2ccc(Oc3cccc(C(=O)O)n3)cc2)n(Cc2ccc(Cl)cc2)c1=O` [Compound I-104], 3 nM.
`CC(c1ccc(Cl)cc1)n1cc(C(=O)NC2CCOCC2)c(=O)nc1Nc1ccc(Oc2cccc(F)n2)cc1` (stereo not shown) [Compound I-270] registered an IC50 of 175 nM. This IC50 lies about 58-fold higher than the previous one.
For the compound `O=c1c(-c2cccnc2O)c[nH]/c(=N\c2ccc(Oc3ccon3)cc2)n1Cc1ccc(Cl)cc1` [Compound I-194], 658 nM corresponded to half-maximal inhibition (IC50).
Compound `COc1ccc(-c2c[nH]/c(=N\c3ccc(Oc4ccon4)cc3)n(Cc3ccc(Cl)cc3)c2=O)cn1` [Compound I-204] came in with an IC50 of 198 nM.
As to `O=c1c(NC(=O)[C@H]2C[C@@H](F)C2)c[nH]/c(=N\c2ccc(Oc3ccon3)cc2)n1Cc1ccc(Cl)cc1` [Compound I-219], the IC50 worked out at 14 nM.
The result for `CCOC(=O)c1c[nH]/c(=N\c2ccc(Oc3ccon3)cc2)n(Cc2ccc(Cl)cc2)c1=O` [Compound I-096] reads 64 nM; that for `O=C(Nc1cnc(Nc2ccc(Oc3ccon3)cc2)n(Cc2ccc(Cl)cc2)c1=O)C1CCOCC1` [Compound I-086], 2 nM.
The result for `CCC(=O)Nc1c[nH]/c(=N\c2ccc(Oc3ccc(C(N)=O)nc3)cc2)n(Cc2ccc(Cl)cc2)c1=O` [Compound I-095] reads 8 nM; that for `CCC(=O)N(C)C1=CN/C(=N\c2ccc(Oc3cccc(C(=O)O)n3)cc2)N(Cc2ccc(Cl)cc2)C1` [Compound I-241], 8 nM.
Compound `CCn1c(=O)cc(Nc2ccc(Oc3ccc(C(=O)OC)nn3)cc2)n(Cc2ccc(Cl)cc2)c1=O` [Compound I-173] yielded an IC50 of 4 nM.
Compound `N#Cc1cc(Oc2ccc(Nc3nc(=O)c(C(=O)NC4CCOCC4)cn3Cc3ccc(Cl)cc3)cc2)ccn1` [Compound I-227] returned an IC50 of 6 nM.
The result for `O=C(Nc1c[nH]/c(=N\c2ccc(Oc3ccon3)cc2)n(Cc2ccc(Cl)cc2)c1=O)c1cocn1` [Compound I-268] reads 85 nM; that for `Cc1nocc1C(=O)Nc1c[nH]/c(=N\c2ccc(Oc3ccon3)cc2)n(Cc2ccc(Cl)cc2)c1=O` [Compound I-264], 15 nM.
The result for `O=C(O)c1cccc(Oc2ccc(Nc3ncc(C(=O)O)c(=O)n3Cc3ccc(Cl)cc3)cc2)n1` [Compound I-050] reads 67 nM.
The result for `CCc1oc2ccc(Nc3ncc(NC(C)=O)c(=O)n3Cc3ccc(Cl)cc3)cc2c1C` [Compound I-071] reads 171 nM; that for `COC(=O)[C@@H](C)Cn1c(=O)cc(Nc2ccc(Oc3cccc(C#N)n3)c(F)c2)n(Cc2ccc(Cl)cc2)c1=O` [Compound I-122], 3 nM; that for `CCOC(=O)c1c[nH]/c(=N\c2ccc(Oc3ccc(F)cn3)c(F)c2)n(Cc2ccc(Cl)cc2)c1=O` [Compound I-206], 48 nM.
`CCc1oc2ccc(Nc3ncc(C(N)=O)c(=O)n3Cc3ccc(Cl)cc3)cc2c1C` [Compound I-020] displayed an IC50 of 50 nM. The IC50 values of the last two compounds are within 1.5-fold of each other.
In the case of `O=c1c(NC(=O)[C@H]2C[C@H](O)C2)c[nH]/c(=N\c2ccc(Oc3ccon3)cc2)n1Cc1ccc(Cl)cc1` [Compound I-183], inhibition was half-maximal at 6 nM (IC50).
The result for `CCn1c(=O)cc(Nc2ccc(Oc3nc(C)c(C(=O)O)s3)cc2)n(Cc2ccc(Cl)cc2)c1=O` [Compound I-041] reads 3 nM; that for `O=C(NC1CCOCC1)c1cn(Cc2ccccc2F)c(Nc2ccc(Oc3cccc(F)n3)cc2)nc1=O` [Compound I-284], 42 nM.
